Test system: Mia-Paca2 cells (human pancreatic cancer cells)
Test: Measurement of cell proliferation in vitro (WST1 colorimetric test, polyhema-coated plates)
Assay type: cell-based
Design: Observed values (living cells): scale not given here
Conditions: for Compound B1 alone (observed value of living cells) / Compound B5 alone (observed value of living cells): 0 μM = 100; for Compound B4 alone (observed value of living cells) / Compound B2 alone (observed value of living cells) / Compound B3 alone (observed value of living cells): 0 nM = 100
Method: The cell line Mia-Paca2 (human pancreatic cancer cells) was acquired from the American Tissue Culture Collection (Rockville, Md., USA).
The Mia-Paca2 cells (1500 cells/wells) are cultured in 96-well plates pre-coated with polyhema (Sigma) which allows only the growth of cells presenting a tumorigenic phenotype.
On day 0, these cells are seeded in 90 μl of Dulbecco's modified Eagle medium (Gibco-Brl, Cergy-Pontoise, France) completed with 10% of foetal calf serum inactivated by heating (Gibco-Brl, Cergy-Pontoise, France), 50000 units/l of penicillin and 50 mg/l streptomycin (Gibco-Brl, Cergy-Pontoise, France), and 2 mM of glutamin (Gibco-Brl, Cergy-Pontoise, France).
The cells were treated with increasing concentrations of two products alone or combined in a matrix, i.e.: on day 1, with the first product for 96 hours and on day 2 with the second product for 72 hours. According to method α, the transduction inhibitor of heterotrimeric G protein signals with which the anti-cancer agent is combined is administered before the latter, then according to method β, it is done so after.
At the end of this period, quantification of cell proliferation is evaluated by a colorimetric test based on the cleavage of the tetrazolium salt WST1 by mitochondrial dehydrogenases in the living cells leading to the formation of formazan (Boehringer Mannheim, Meylan, France). These tests are carried out in duplicate with 4 measurements for each single product and for each combination tested. This allows the number of living cells at the end of each treatment to be determined, i.e. the observed value. The calculated value of the living cells for each treatment corresponds to the multiplication of the observed values of the effects of separate products. These observed and calculated values are compared for each combination. When the observed value of living cells is lower than the calculated value of the living cells, a synergy is considered to exist. When the observed value is equal to the calculated value, a additive effect is considered to exist. When the observed value is greater than the calculated value, an antagonism is considered to exist.

For “1-(2-(1-((4-cyano)phenylmethyl)imidazol-4-yl)-1-oxoethyl-2,5-dihydro-4-(2-methoxyphenyl)imidazo[1,2c][1,4]benzodiazepine [compound B1]”, the “Compound B1 alone (observed value of living cells)” value (“Compound B1 alone” for short) (B1 0.04 μM alone, Table I) was 94 ± 2.3, the “Compound B1 alone” value (B1 0.2 μM alone, Table I) was 80 ± 4.2 and the “Compound B1 alone” value (B1 1 μM alone, Table I) was 68 ± 2.3.

With “4-(2-bromophenyl)-1-(2-(1-((4-cyano-3-methoxy)phenylmethyl)-imidazo-5-yl)-1-oxoethyl)-1,2-dihydro-8-fluoro-imidazo[1,2a][1,4]-benzodiazepine [compound B5]” the “Compound B5 alone (observed value of living cells)” value (B5 0.2 μM alone, Table V) was 86 ± 0.9 and the “Compound B5 alone (observed value of living cells)” value (B5 1 μM alone, Table V) was 63 ± 2.6.

With `Cn1cncc1C(N)(c1ccc(Cl)cc1)c1ccc2c(c1)c(-c1cccc(Cl)c1)cc(=O)n2C` (racemic) [compound B4, (±)-4-(3-chlorophenyl)-6-[(4-chlorophenyl)-amino-(1-methyl-1H-imidazol-5-yl)methyl]-1-methyl-2(1H)quinolinone, reference compound] the “Compound B4 alone (observed value of living cells)” value (“Compound B4 alone” below) (B4 40 nM alone, Table IV) was 104 ± 2.0, the “Compound B4 alone” value (B4 0.2 μM alone, Table IV) was 90 ± 9.0 and the “Compound B4 alone” value (B4 1 μM alone, Table IV) was 72 ± 3.

With `Cc1ccccc1-c1cn2c(n1)C(CC1CCCCC1)N(C(=O)C(N)CS)CC2` (stereo not shown) [compound A1, 7-(2-amino-1-oxo-3-thiopropyl)-8-(cyclohexylmethyl)-2-(2-methylphenyl)-5,6,7,8-tetrahydroimidazo[1,2a]pyrazine] the “Observed values (living cells)” value (A1 20 μM alone (B1 0 μM), method α, n = 4, Table I) was 51 ± 8.9, the “Observed values (living cells)” value (A1 20 μM alone (B2 0 nM), method α, n = 3, Table II) was 49 ± 7.7 and the “Observed values (living cells)” value (A1 20 μM alone (B3 0 nM), method α, n = 3, Table III) was 65 ± 7.3.

For `NC(CS)C(=O)N1CCn2cc(-c3ccccc3)nc2C1CC1CCCCC1` (stereo not shown) [compound A2, 7-(2-amino-1-oxo-3-thiopropyl)-8-(cyclohexylmethyl)-2-phenyl-5,6,7,8-tetrahydroimidazo[1,2a]pyrazine], the “Observed values (living cells)” value (A2 20 μM alone (B4 0 nM), method β, n = 2, Table IV) was 42 ± 11.0 and the “Observed values (living cells)” value (A2 20 μM alone (B5 0 μM), method β, n = 3, Table V) was 44 ± 6.4.

In the case of `CC(=O)O[C@H]1C(=O)[C@@]2(C)[C@H]([C@H](OC(=O)c3ccccc3)[C@]3(O)C[C@H](OC(=O)[C@H](O)[C@@H](NC(=O)c4ccccc4)c4ccccc4)C(C)=C1C3(C)C)[C@]1(OC(C)=O)CO[C@@H]1C[C@@H]2O` [compound B2, taxol, reference compound], the “Compound B2 alone (observed value of living cells)” value (shortened to “Compound B2 alone”) (B2 0.8 nM alone, Table II) is reported as 100 ± 5.8, the “Compound B2 alone” value (B2 4 nM alone, Table II) is reported as 100 ± 0.3 and the “Compound B2 alone” value (B2 20 nM alone, Table II) is reported as 60 ± 10.6.

`Nc1ccn([C@@H]2O[C@H](CO)[C@@H](O)C2(F)F)c(=O)n1` [compound B3, gemcitabine, reference compound] was tested, and the “Compound B3 alone (observed value of living cells)” value (“Compound B3 alone” for short) (B3 4 nM alone, Table III) was 95 ± 9.8, the “Compound B3 alone” value (B3 20 nM alone, Table III) was 72 ± 11.5 and the “Compound B3 alone” value (B3 100 nM alone, Table III) was 62 ± 1.9.

From patent US7034024B1, “Product inhibiting transduction of G heterotrimeric protein signals combined with another anti-cancer agent for therapeutic use in cancer treatment” (Societe de Conseils de Recherches et d'Applications …, priority 1999, dated 2006)
